From ChEMBL document CHEMBL1158987, “Isolation and structure determination of novel phosphatidylinositol kinase inhibitors, echiguanines A and B, from Streptomyces sp” (J Nat Prod, 1991) come the findings set out here.

Structures are written as SMILES. Values after ≈ are worked out from the molar mass of the structure shown.

The first data set in a line: Inhibition of phosphatidylinositol 4-kinase in human A431 cell membrane by liquid scintillation counting. Particulars: a-431. The format is cell-based.
With `O=Cc1cccc(O)c1O`, the IC50 was determined as 0.45 µg/mL (≈ 3.26 µM).

In turn, `Nc1nc2c(c(=O)[nH]1)CC=N2` [7-DEAZAGUANINE] registered a concentration for half-maximal inhibition (IC50) of 35 µg/mL (≈ 233 µM). In the case of `Nc1[nH]cnc2ncnc1-2` [ADENINE], the IC50 is over 100 µg/mL. Compound `N=C(N)CCNC(=O)c1c[nH]c2nc(N)nc(O)c12` [ECHIGUANINE A] yielded an IC50 of 0.04 µg/mL (≈ 0.152 µM).

`NCCCNC(=O)c1c[nH]c2nc(N)nc(O)c12` [ECHIGUANINE B] had an IC50 of 0.11 µg/mL (≈ 0.44 µM). Compared with the last compound, the IC50 is about 2.8-fold higher. Still for that read-out and setting: the same measure for `Nc1nc2[nH]cnc2c(=O)[nH]1` [GUANINE]: over 100 µg/mL. On to `O=c1[nH]cnc2nc[nH]c12` [HYPOXANTHINE], for which the IC50 is over 100 µg/mL. `Nc1nc(=O)[nH]c2nc[nH]c12` [ISOGUANINE] gave an IC50 of over 100 µg/mL. The same measure, in the same setting: the same measure for `O=c1c(-c2ccc(O)c(O)c2)coc2cc(O)cc(O)c12` [OROBOL]: 0.25 µg/mL (≈ 0.873 µM). The same measure, in the same setting: for `O=c1c(O)c(-c2ccc(O)c(O)c2)oc2cc(O)cc(O)c12` [QUERCETIN] the value was 1.8 µg/mL (≈ 5.96 µM). `N#Cc1cn([C@@H]2O[C@H](CO)[C@@H](O)[C@H]2O)c2ncnc(N)c12` [TOYOCAMYCIN] had a half-maximal inhibitory concentration (IC50) of 3.3 µg/mL (≈ 11.3 µM).

Another data set in a line: Toxicity in ip dosed mouse. Particulars: in vivo. The format is organism-based.
In turn, `N=C(N)CCNC(=O)c1c[nH]c2nc(N)nc(O)c12` [ECHIGUANINE A] had an LD50 of over 100 mg/kg. `NCCCNC(=O)c1c[nH]c2nc(N)nc(O)c12` [ECHIGUANINE B]: the LD50 was over 100 mg/kg.

Usually IC50 stands for the point on the concentration scale where inhibition reaches its midpoint. Read a low IC50 as inhibition by little substance. Broadly, the LD50 is the dose expected to kill half of the subjects tested. Low readings indicate a more toxic substance, high ones a less toxic substance.
